The results in this text go back to patent US10532106B2 (priority 2014, dated 2020).

As a reminder, the Kd is a measure of binding affinity in units of concentration.

For data set [1], the target named is T1, MT1-MMP hemopexin domain (Homo sapiens, UniProt P50281).
T1 construct: residues Cys319-Gly511 from the human gene; His6 (N); made in house; host or cells: HEK293 (transient), pEXPR-IBA42 vector
The experiment in a line: Direct binding fluorescence polarisation (FP) assay. The protocol: Direct Binding Fluorescence Polarisation or Anisotropy Assays are performed by titrating a constant concentration of fluorescent tracer (here, the fluoresceinated bicyclic peptide to be studied) with its binding partner (here, the MT1-MMP hemopexin domain). As the concentration of binding partner increases during the titration, the polarisation signal changes in proportion to the fraction of bound and unbound material. This allows determination of […] (Kd) quantitatively. Assay data can be fit using standard ligand binding equations.
The titrant (binding partner) concentration is varied from 0.1 nM up to typically 5 μM. The range is chosen such that the maximum change in fluorescent polarisation can be observed. Buffers employed are phosphate buffered saline in the presence of 0.01% Tween. Experiments were run in black 384 well low-bind/low volume plates (Corning 3820), and the fluorescent polarisation signal was measured using a BMG Pherastar FS plate reader.
Fluorescent tracers referred to in the text are bicyclic peptides that have been fluoresceinated using 5,6-carboxyfluorescein. Fluoresceination may be performed on the N-terminal amino group of the peptide, which is separated from the bicycle core sequence by a sarcosine spacer (usually Sar5). This can be done during Fmoc solid phase synthesis or post-synthetically (after cyclisation with TBMB and purification) if the N-terminal amino group is unique to the peptide. Fluoresceination can also be performed on the C-terminus, usually on a Lysine introduced as the first C-terminal residue, which is then separated from the bicycle core sequence by a sarcosine spacer (usually Sar6). Thus, N-terminal tracers can have a molecular format described as Fluo-Gly-Sar5-A(BicycleCoreSequence), and (BicycleCoreSequence)-A-Sar6-K(Fluo) for a C-terminally fluoresceinated construct. Fluorescent tracers used in the Examples are A-(17-69)-A-Sar6-K(Fluo), A-(17-69-07)-A-Sar6-K(Fluo), and A-(17-69-12)-A-Sar6-K(Fluo). Due to the acidic nature of the 17-69 fluorescent peptides, they were typically prepared as concentrated DMSO stocks, from which dilution were prepared in 100 mM Tris pH 8 buffer.
(In fluorescence polarisation assays a small probe gives low polarisation when free and higher when bound to something large.)

Data set [2] in a line: Plasma stability, quantitative LC-MS. The format is in vitro ADME, rat. Conditions: Table 16; incubation up to 24 hrs, 4 μM.
Data set [3] in a line: Plasma stability, quantitative LC-MS (Method #2). The following applies: Table 16; incubation up to 24 hrs, 4 μM. Format: in vitro ADME, human. The protocol: (§1) […] […] Prior to LC-MS analysis, samples were defrosted, and mixed with 3 volumes (here, 120 μL) of 1:1 acetonitrile/MeOH water. The milky suspensions were centrifuged for 30 min at 13000 rpm, and peptide-containing supernatants were quantitated for doubly/triply charged species and MS/MS fragments thereof using a Waters Xevo TQ-D instrument, while using a plasma extracted standard curve of the same peptides as a reference. The half-life of degradation in plasma was used to assess the comparative stability of the molecules.

Data set [4] addresses T1, MT1-MMP hemopexin domain. The experiment in a line: Competition assay using fluorescence polarisation. The format is binding. In a few lines:
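Pre-formed PEX–fluorescent tracer complex titrated with non-fluoresceinated bicyclic peptide, which displaces tracer and lowers fluorescence polarisation. Competitor Kd obtained by fitting to the cubic-equation solution for tracer/titrant/protein equilibria, using tracer Kd from separate direct-binding FP.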

Data set [5] is described as follows: Plasma stability, quantitative LC-MS (Method #2). The format is in vitro ADME, mouse. Conditions: Table 16; incubation up to 24 hrs, 4 μM. The protocol: as §1
In data set [6] the test system is HT-1080 xenograft tumours. Kind of data set: Efficacy in HT-1080 xenograft mice. Format: in vivo, mouse. Conditions: HT1080 xenograft. The protocol: Balb/c nude mice bearing subcutaneous HT-1080 xenograft tumours were treated with BDCs or vehicle (PBS). BDCs were dosed 3 times weekly for 2 weeks, dosing initiated when tumours measured approx. 150-200 mm^3. Mice were monitored, and measurements of tumour volume and body weight recorded 3 times a week.

Where [7] appears, read: Table 2, FP method Direct Binding, read-out: Kd.

“Also recorded” adds a separate entry of the source. Numbered stars: 1 amine (or outer) side, 2 acyl side, 3 side chain; on linkers, the order of the positions; unused ones are H or OH. Bridge positions count the residues as written; N and C are the ends. Square brackets hold non-standard residues; d marks the D form. Peptide text beside a SMILES is read from it. * marks the point of attachment. X3 = COc1cc2cc(c1Cl)N(C)C(=O)C[C@H](OC(=O)[C@H](C)N(C)C(=O)CCSSCCCC(=O)*)[C@]1(C)O[C@H]1[C@H](C)[C@@H]1C[C@@](O)(NC(=O)O1)[C@H](OC)/C=C/C=C(\C)C2; 5FAM = O=C1OC2(c3ccc(O)cc3Oc3cc(O)ccc32)c2ccc(C(=O)*)cc21; 1Nal = N[C@@H](Cc1cccc2ccccc12)C(=O)O; TBMB = c1c(C[*:1])cc(C[*:3])cc1C[*:2]; Tle = CC(C)(C)[C@H](N)C(=O)O; βAla = NCCC(=O)O; Sar = CNCC(=O)O

With `CC[C@H](C)[C@@H]1NC(=O)[C@H](CC(=O)O)NC(=O)[C@H](Cc2ccc(O)cc2)NC(=O)[C@H](Cc2ccccc2)NC(=O)[C@H](CC(=O)O)NC(=O)[C@H](CCC(=O)O)NC(=O)[C@@H]2CSCc3cc(cc(c3)CSC[C@@H](C(=O)N[C@@H](C)C(=O)N(C)CC(=O)N(C)CC(=O)N(C)CC(=O)N(C)CC(=O)N(C)CC(=O)N(C)CC(=O)N[C@@H](CCCCNC(=O)c3ccc4c(c3)C(=O)OC43c4ccc(O)cc4Oc4cc(O)ccc43)C(N)=O)NC1=O)CSC[C@H](NC(=O)[C@H](C)N)C(=O)N[C@@H](Cc1ccc(O)cc1)C(=O)N[C@@H](CC(N)=O)C(=O)N[C@@H](CCC(=O)O)C(=O)N[C@@H](Cc1ccccc1)C(=O)NCC(=O)N2` [17-69-07-N040, A-(17-69-07)-A-Sar6-K(Fl)] (H-ACYNEFGCEDFYDICA[Sar][Sar][Sar][Sar][Sar][Sar]K(5FAM)-NH2; linker 2-8-15 via TBMB), the Kd on MT1-MMP hemopexin domain [1] (setting [7]) came to 0.52 nM.

Turning to `C[C@H](NC(=O)CN(C)C(=O)CN(C)C(=O)CN(C)C(=O)CN(C)C(=O)CN(C)C(=O)CN(C)C(=O)CN(C)C(=O)CN(C)C(=O)CN(C)C(=O)CN(C)C(=O)CCN)C(=O)N[C@H]1CSCc2cc3cc(c2)CSC[C@H](NC(=O)[C@@H](C)NC(=O)[C@H](Cc2cccc4ccccc24)NC(=O)[C@H](CCC(=O)O)NC(=O)[C@H](CC(N)=O)NC(=O)[C@@H](C)NC1=O)C(=O)N[C@@H](CCC(=O)O)C(=O)N[C@@H](CC(=O)O)C(=O)N[C@@H](Cc1ccccc1)C(=O)N[C@@H](Cc1ccc(O)cc1)C(=O)N[C@@H](CC(=O)O)C(=O)N[C@@H](C(C)(C)C)C(=O)N[C@H](C(N)=O)CSC3` [17-69-07-N241, bAla-Sar10-A-(17-69-07) D-Ala1 1Nal4 D-Ala5 tBuGly11] (H-[βAla][Sar][Sar][Sar][Sar][Sar][Sar][Sar][Sar][Sar][Sar]AC[dA]NE[1Nal][dA]CEDFYD[Tle]C-NH2; linker 13-19-26 via TBMB), the “t1/2 (hrs) (rat plasma)” value in data set [2] was more than 36 h. The “t1/2 (hrs) (human plasma)” value in data set [3] was more than 36 h. Further, the Kd at MT1-MMP hemopexin domain [4] (Table 12, molecules selected for plasma stability assessment, read-out: Kd) was 1.21 ± 0.24 nM; on MT1-MMP hemopexin domain [4] (Table 16, footnote e: 17-69-07-N004 as tracer in FP competition, read-out: Kd (nM) (Hemopexin domain)), 1.4 ± 0.3 nM. Also, on MT1-MMP hemopexin domain [4] (murine, dog, cynomolgus and human MT1-MMP), the species cross-reactivity result was “fully cross reactive”. In addition, in data set [5], the “t1/2 (hrs) (mouse plasma)” value is more than 36 h.

Regarding `C[C@H](NC(=O)CN(C)C(=O)CN(C)C(=O)CN(C)C(=O)CN(C)C(=O)CN(C)C(=O)CN(C)C(=O)CN(C)C(=O)CN(C)C(=O)CN(C)C(=O)CN(C)C(=O)CCNC(=O)c1ccc2c(c1)C(=O)OC21c2ccc(O)cc2Oc2cc(O)ccc21)C(=O)N[C@H]1CSCc2cc3cc(c2)CSC[C@H](NC(=O)[C@@H](C)NC(=O)[C@H](Cc2cccc4ccccc24)NC(=O)[C@H](CCC(=O)O)NC(=O)[C@H](CC(N)=O)NC(=O)[C@@H](C)NC1=O)C(=O)N[C@@H](CCC(=O)O)C(=O)N[C@@H](CC(=O)O)C(=O)N[C@@H](Cc1ccccc1)C(=O)N[C@@H](Cc1ccc(O)cc1)C(=O)N[C@@H](CC(=O)O)C(=O)N[C@@H](C(C)(C)C)C(=O)N[C@H](C(N)=O)CSC3` [17-69-07-N258, Fluorescein-(bAla)-Sar10-A-(17-69-07) D-Ala1 1Nal4 D-Ala5 tBuGly11] ({5FAM-βAla}-[Sar][Sar][Sar][Sar][Sar][Sar][Sar][Sar][Sar][Sar]AC[dA]NE[1Nal][dA]CEDFYD[Tle]C-NH2; linker 12-18-25 via TBMB), at MT1-MMP hemopexin domain [1] (Table 14, fluoresceinated derivative, read-out: V1T1-MMP (=MMP-14) (Kd, in nM)), the Kd turned out to be 2.2 nM.

Regarding `CC[C@H](C)[C@@H]1NC(=O)[C@H](CC(=O)O)NC(=O)[C@H](Cc2ccc(O)cc2)NC(=O)[C@H](Cc2ccccc2)NC(=O)[C@H](CC(=O)O)NC(=O)[C@H](CCC(=O)O)NC(=O)[C@@H]2CSCc3cc(cc(c3)CSC[C@@H](C(=O)N[C@@H](C)C(=O)N(C)CC(=O)N(C)CC(=O)N(C)CC(=O)N(C)CC(=O)N(C)CC(=O)N(C)CC(=O)N[C@@H](CCCCNC(=O)c3ccc4c(c3)C(=O)OC43c4ccc(O)cc4Oc4cc(O)ccc43)C(N)=O)NC1=O)CSC[C@H](NC(=O)[C@H](C)N)C(=O)N[C@@H](CCSC)C(=O)N[C@@H](CC(N)=O)C(=O)N[C@@H](CCC(N)=O)C(=O)N[C@@H](Cc1ccccc1)C(=O)NCC(=O)N2` [17-69-12-N005, A-(17-69-12)-A-Sar6-K(Fl)] (H-ACMNQFGCEDFYDICA[Sar][Sar][Sar][Sar][Sar][Sar]K(5FAM)-NH2; linker 2-8-15 via TBMB), the Kd at MT1-MMP hemopexin domain [1] (setting [7]) was 3.1 nM.

As for `CC[C@H](C)[C@@H]1NC(=O)[C@H](CC(=O)O)NC(=O)[C@H](Cc2ccc(O)cc2)NC(=O)[C@H](Cc2ccccc2)NC(=O)[C@H](CC(=O)O)NC(=O)[C@H](CCC(=O)O)NC(=O)[C@@H]2CSCc3cc(cc(c3)CSC[C@H](NC(=O)[C@H](C)NC(=O)CN(C)C(=O)CN(C)C(=O)CN(C)C(=O)CN(C)C(=O)CN(C)C(=O)CN(C)C(=O)CN(C)C(=O)CN(C)C(=O)CN(C)C(=O)CN(C)C(=O)CNC(=O)CCCSSCCC(=O)N(C)[C@@H](C)C(=O)O[C@H]3CC(=O)N(C)c4cc(cc(OC)c4Cl)C/C(C)=C/C=C/[C@@H](OC)[C@@]4(O)C[C@H](OC(=O)N4)[C@@H](C)[C@@H]4O[C@@]34C)C(=O)N[C@@H](Cc3ccc(O)cc3)C(=O)N[C@@H](CC(N)=O)C(=O)N[C@@H](CCC(=O)O)C(=O)N[C@@H](Cc3ccccc3)C(=O)NCC(=O)N2)CSC[C@@H](C(N)=O)NC1=O` [BT17BDC-9] (X3-G[Sar][Sar][Sar][Sar][Sar][Sar][Sar][Sar][Sar][Sar]ACYNEFGCEDFYDIC-NH2; linker 13-19-26 via TBMB), the “weight of the animals” value in data set [6] is reported as “largely stable”. In data set [6] (compared to vehicle control, listed as BDC17BDC-9), the tumour volume entry was “significant reduction in tumour volume after 9 days post injection; also recorded: Tumours were completely cleared by day 14”.

Consider `CC[C@H](C)[C@@H]1NC(=O)[C@H](CC(=O)O)NC(=O)[C@H](Cc2ccc(O)cc2)NC(=O)[C@H](Cc2ccccc2)NC(=O)[C@H](CC(=O)O)NC(=O)[C@H](CCC(=O)O)NC(=O)[C@@H]2CSCc3cc(cc(c3)CSC[C@@H](C(=O)N[C@@H](C)C(=O)N(C)CC(=O)N(C)CC(=O)N(C)CC(=O)N(C)CC(=O)N(C)CC(=O)N(C)CC(=O)N[C@@H](CCCCNC(=O)c3ccc4c(c3)C(=O)OC43c4ccc(O)cc4Oc4cc(O)ccc43)C(N)=O)NC1=O)CSC[C@H](NC(=O)[C@H](C)N)C(=O)N[C@@H](CCCCN)C(=O)N[C@@H](CC(N)=O)C(=O)N[C@@H](CCCNC(=N)N)C(=O)NCC(=O)N[C@@H](Cc1ccccc1)C(=O)NCC(=O)N2` [Peptide 17-69-N004, A-(17-69)-A-Sar6-K(Fl)] (H-ACKNRGFGCEDFYDICA[Sar][Sar][Sar][Sar][Sar][Sar]K(5FAM)-NH2; linker 2-9-16 via TBMB), for which the Kd at MT1-MMP hemopexin domain [1] (setting [7]) was 692 nM.
